The text below walks through data of US9873918B2, “Treatment of acute myeloid leukemia and myelodysplastic syndromes” (Albert Einstein College of Medicine, Inc., priority 2011, dated 2018).

Common to all, as to test: Colony formation (clonogenic) assay in methylcellulose after lentiviral IL1RAP shRNA knockdown
Common to all, as to assay type: cell-based, human
Common to all, as to details: p<0.05

The test system of series [1] is HL-60 cells. The text has this:
(§1) FIG. 18A-18B. IL1RAP knockdown decreases clonogenic potential and leads to increased cell death of AML cells. A) Colony formation assay in semisolid methylcellulose media of AML cells (THP-1, OCI-AML3, HEL, HL-60) infected with control and two IL1RAP-directed shRNAs. Mean and standard deviations are shown. Asterisks indicate statistical significance (p<0.05). B) Analysis of apoptosis/necrosis with Annexin V/DAPI in THP-1 cells infected with control and IL1RAP shRNAs. […] Statistical significance is indicated (* indicate p<0.05).
(§2) For knockdown studies, shRNA template oligonucleotides (Luciferase Control shRNA: 5′-[…]-3′ (SEQ ID NO:3); IL-1RAP shRNA 1: 5′-[…]-3′ (SEQ ID NO:4); IL-1RAP shRNA 2: 5′-[…]-3′) (SEQ ID NO:5) were cloned into the pSIH1-H1-copGFP shRNA vector system (System Biosciences, Mountain View, Calif.). For production of lentiviral particles, lentiviral constructs with packaging vectors were transfected into 293T producer cells using Fugene HD transfection reagent (Roche). Supernatant was harvested after 48 and 72 hours, and concentrated by ultracentrifugation. For knockdown studies, HL60, HEL, OCI-AML3, MOLM-13, THP1 and UT-7 cell lines were transfected with the short-hairpin-containing lentivirus (MOI=10), incubated for 48 or 72 hours. After culture with fresh medium, GFP-positive cells were sorted using a FACS Aria II sorter (BD Biosciences) and used for experiments. Level of knockdown of Il-1RAP was determined by flow cytometry.
(§3) THP1 cells were transduced with these lentiviral shRNAs or with a non-silencing control, and subjected sorted GFP-positive, Annexin V-negative, DAPI-negative cells to clonogenic assays. Knockdown of IL1RAP led to a significant (p<0.05) 94% and 98% inhibition of leukemic colony formation of THP1 cells in comparison to the non-silencing control (FIG. 18A).

Series [2] has as its system OCI-AML3 cells.
From the text: as §1, §2, §3

Series [3] deals with HEL cells.
From the text: as §1, §2, §3

“shRNA#2: IL1RAP-directed lentiviral shRNA, template 5′-cgggcattaattgatttcctactatattc-3′ (SEQ ID NO:5), in pSIH1-H1-copGFP vector (DNA CGGGCATTAATTGATTTCCTACTATATTC)”: the results for the reduced clonogenicity in series [1], in series [2] and in series [3] were 38.5%, 62% and 81%, respectively.

For the substance “shRNA#1: IL1RAP-directed lentiviral shRNA, template 5′-tggccttactctgatctggtattggacta-3′ (SEQ ID NO:4), in pSIH1-H1-copGFP vector (DNA TGGCCTTACTCTGATCTGGTATTGGACTA)”, the results for the reduced clonogenicity in series [1], in series [2] and in series [3] were 45%, 51.5% and 69%, respectively.
